The values that follow come from ChEMBL document CHEMBL1201862, “PubChem BioAssay data set” (2004).

Each structure is given as a SMILES string.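 Cultured in 96-well plates, cells were exposed to test compound for 48 hours across five concentrations. GI50: concentration for 50% inhibition of growth.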 The source made the active and inactive calls. No stated cut-off is given here; in the data, active = GI50 up to about 1.1 µM and inactive = higher.

Some test systems named below: 786-0; A498; CAKI-1; HCC 2998; HCT-15; K562; MDA-MB-231; NCI-H226; NCI-H23; NCI-H522; OVCAR-3; OVCAR-5; OVCAR-8; SF-539; SNB-75; U-251; UACC-62; IGROV-1; MOLT-4; SR.
Experiment in all cases: NCI-60 cell line screen, 48 h

As to `O=C(c1ccc(Cl)c(Cl)c1)N(C(=S)OC12CC3CC(CC(C3)C1)C2)c1ccccc1`, the GI50 with 786-0 is 30.3 µM (inactive); in the assay with A498, 37.1 µM (inactive); in the assay on CAKI-1, 29.9 µM (inactive); in the assay with HCC 2998, 43.3 µM (inactive); with HCT-15, 33.3 µM; in the assay on K562, 17.1 µM (inactive). Also, the GI50 with MDA-MB-231 is 38.3 µM (inactive); in the assay on NCI-H226, 31.2 µM (inactive); in the assay on NCI-H23 it was 28.9 µM (inactive); in the assay on NCI-H522 it was 13.2 µM (inactive); in the assay with OVCAR-3, 39.4 µM (inactive); with OVCAR-5, 18.7 µM (inactive). In addition, the GI50 was 41.5 µM (inactive) in the assay on OVCAR-8; 36.6 µM (inactive) in the assay on SF-539; 93.1 µM (inactive) with SNB-75; 34.6 µM (inactive) in the assay with U-251; 25.1 µM (inactive) in the assay on UACC-62.

On to `N#CC(=S)Nc1cccc(Cl)c1`, for which the GI50 with 786-0 was 40.5 µM (inactive); in the assay with A498 it was 34.1 µM (inactive); in the assay with CAKI-1, 41.9 µM (inactive); in the assay on HCC 2998, 28.8 µM (inactive); in the assay with HCT-15, 27.9 µM; with IGROV-1, 5.13 µM (inactive). Moreover, the GI50 was 19.5 µM (inactive) in the assay with K562; 38.4 µM (inactive) with MDA-MB-231; 34 µM (inactive) in the assay with MOLT-4; 23.9 µM (inactive) with NCI-H226; 31.4 µM (inactive) in the assay on NCI-H23; 16 µM (inactive) in the assay with OVCAR-3. The GI50 with OVCAR-5 was 28.5 µM (inactive); in the assay on OVCAR-8 it was 32.3 µM (inactive); in the assay on SF-539 it was 25.9 µM (inactive); in the assay with SNB-75, 23.9 µM (inactive); in the assay with U-251, 34.8 µM (inactive); in the assay with UACC-62 it was 19 µM (inactive).

In the case of `CCOP(=O)(O)C(C)(C)NC`, the GI50 is > 100 µM (inactive) in the assay on 786-0; > 100 µM (inactive) in the assay on A498; > 10 µM (inactive) with CAKI-1; > 100 µM (inactive) in the assay with HCC 2998; > 100 µM in the assay with HCT-15; > 100 µM (inactive) in the assay with IGROV-1. In addition, the GI50 in the assay on K562, with MDA-MB-231, with MOLT-4, with NCI-H226, in the assay on NCI-H23 and with NCI-H522 was > 100 µM (inactive) each time. The GI50 with OVCAR-3, with OVCAR-5, in the assay with OVCAR-8, in the assay on SF-539, with U-251 and with UACC-62 was > 100 µM (inactive) each time.

In the case of `CCOP(=O)(/C=C/n1cc(C)c(=O)[nH]c1=O)OCC`, the GI50 is > 100 µM (inactive) in the assay on 786-0; > 100 µM (inactive) in the assay on A498; > 100 µM (inactive) with CAKI-1; > 100 µM in the assay on HCT-15; > 100 µM (inactive) in the assay on IGROV-1; > 100 µM (inactive) in the assay with K562. For the same compound, the GI50 in the assay on MDA-MB-231, in the assay with MOLT-4, in the assay with NCI-H226, with NCI-H23, in the assay on NCI-H522 and in the assay with OVCAR-3 was > 100 µM (inactive) each time. Further, the GI50 with OVCAR-5, with OVCAR-8, in the assay on SF-539, with SNB-75, in the assay on U-251 and in the assay on UACC-62 was > 100 µM (inactive) throughout.

With `CC(C)C(NC(=O)Oc1ccccc1)C(=O)NC1c2c(Br)sc(Br)c2C(=O)C1O` (stereo unspecified), the GI50 in the assay with 786-0 was 8.79 µM (inactive); with A498, > 25 µM (inactive); with CAKI-1, 6.81 µM (inactive); in the assay on HCC 2998, 4.2 µM (inactive); with HCT-15 it was 4.25 µM; in the assay on IGROV-1, 4.47 µM (inactive). Moreover, the GI50 in the assay on K562 is 7.8 µM (inactive); with MDA-MB-231, 5.11 µM (inactive); with MOLT-4, 11.9 µM (inactive); in the assay with NCI-H226, > 25 µM (inactive); in the assay on NCI-H23, 4.8 µM (inactive); with OVCAR-3, 4.14 µM (inactive). Also, the GI50 was 4.91 µM (inactive) in the assay on OVCAR-5; 4.6 µM (inactive) in the assay on OVCAR-8; 14.2 µM (inactive) in the assay with SF-539; > 25 µM (inactive) in the assay with SNB-75; 5.31 µM (inactive) with U-251; 4.02 µM (inactive) with UACC-62.

Turning to `O=c1c(-c2cccc3ccccc23)c(-c2cccc3ccccc23)c1=O`, the GI50 is 0.535 µM (active) with 786-0; 2.45 µM (inactive) in the assay on A498; 2.91 µM (inactive) in the assay with CAKI-1; 0.979 µM (active) in the assay on HCC 2998; 2.42 µM with HCT-15; 2.6 µM (inactive) in the assay on IGROV-1. Moreover, the GI50 was 0.161 µM (active) in the assay with K562; 1.59 µM (inactive) in the assay on MOLT-4; 2.32 µM (inactive) with NCI-H226; 2.49 µM (inactive) with NCI-H23; 0.489 µM (active) in the assay with NCI-H522; 0.577 µM (active) with OVCAR-3. In addition, the GI50 in the assay with OVCAR-5 was 24.7 µM (inactive); in the assay with OVCAR-8, 2.81 µM (inactive); with SF-539, 1.38 µM (inactive); with SNB-75 it was 0.2 µM (active); in the assay on SR it was 1.43 µM (inactive); in the assay on U-251, 3.31 µM (inactive). The GI50 in the assay on UACC-62 is 1.04 µM (active).

`Cc1cc(Cl)ccc1NC(=O)/C(=N\NC(C)(C)C)C(C#N)c1nc(-c2ccc([N+](=O)[O-])cc2)cs1` (stereo unspecified): the GI50 is > 100 µM (inactive) in the assay with 786-0; > 100 µM (inactive) in the assay on A498; > 100 µM (inactive) in the assay with CAKI-1; > 100 µM (inactive) in the assay on HCC 2998; > 100 µM in the assay with HCT-15; > 100 µM (inactive) in the assay with IGROV-1. The GI50 in the assay with K562 was > 100 µM (inactive); with MOLT-4, 5.79 µM (inactive); in the assay on NCI-H226 it was > 100 µM (inactive); in the assay on NCI-H23 it was > 100 µM (inactive); in the assay on NCI-H522 it was > 100 µM (inactive); with OVCAR-3 it was > 100 µM (inactive). The GI50 in the assay on OVCAR-5, with OVCAR-8, in the assay on SF-539, in the assay with SNB-75, with SR and in the assay with U-251 was > 100 µM (inactive) in each case. Also, the GI50 with UACC-62 was > 100 µM (inactive).

On to `Oc1ccccc1/C=C/c1csnn1`, for which the GI50 was > 31.6 µM (inactive) in the assay on 786-0; > 100 µM (inactive) in the assay on A498; > 100 µM (inactive) in the assay on CAKI-1; > 100 µM (inactive) with HCC 2998; > 51.4 µM in the assay with HCT-15; > 100 µM (inactive) in the assay on IGROV-1. The GI50 with K562, with MOLT-4, in the assay with NCI-H226, with NCI-H23, with NCI-H522 and in the assay on OVCAR-3 was > 100 µM (inactive) throughout. The GI50 is > 100 µM (inactive) with OVCAR-5; > 100 µM (inactive) in the assay on OVCAR-8; > 100 µM (inactive) in the assay with SF-539; > 100 µM (inactive) in the assay on SNB-75; > 46.2 µM (inactive) in the assay on SR; > 100 µM (inactive) with U-251. Also, the GI50 with UACC-62 was > 100 µM (inactive).
